The results in this text go back to ChEMBL document CHEMBL4219256, “Design, Synthesis, and Biological Evaluation of 4-Quinoline Carboxylic Acids as Inhibitors of Dihydroorotate Dehydrogenase” (J Med Chem, 2018).

For one series, the system named is MIA PaCa-2. The series is described as follows: Antiproliferative activity against human MIAPaCa2 cells after 72 hrs by MTT assay. The series is classed as functional, cell-based. Background: Formazan colour is commonly taken as a measure of viable cells.
Series [1] concerns HCT-116. The series is described as follows: Antiproliferative activity against human HCT116 cells over-expressing DHODH after 72 hrs by MTT assay. Format: functional, cell-based.
Series [2] deals with HCT-116. The series is described as follows: Growth inhibition of human HCT116 cells over-expressing DHODH at 2 times antiproliferative IC50 after 72 hrs in presence of 5 uM uridine by MTT assay. Format: functional.
The nature of series [3]: Thermodynamic aqueous solubility of the compound in pH 7.4 phosphate buffer at 2.9 mg/ml after overnight incubation by CLND method. Format: physicochemical.
Series [4] can be described thus: Thermodynamic aqueous solubility of the compound in pH 7.4 phosphate buffer at 4.9 mg/ml after overnight incubation by CLND method. The series is classed as physicochemical.
A further series concerns HL-60. Put plainly: Antiproliferative activity against human HL60 cells after 72 hrs by MTT assay.
Series [5] in a line: Thermodynamic aqueous solubility of the compound in pH 7.4 phosphate buffer at 6.7 mg/ml after overnight incubation by CLND method. The series is classed as physicochemical.
The nature of series [6]: Thermodynamic aqueous solubility of the compound in pH 7.4 phosphate buffer at 8.7 mg/ml after overnight incubation by CLND method. Format: physicochemical.
In series [7] the target is Dihydroorotate dehydrogenase (quinone), mitochondrial (Homo sapiens, UniProt Q02127).
Sequence of Dihydroorotate dehydrogenase (quinone), mitochondrial (Q02127 whole entry): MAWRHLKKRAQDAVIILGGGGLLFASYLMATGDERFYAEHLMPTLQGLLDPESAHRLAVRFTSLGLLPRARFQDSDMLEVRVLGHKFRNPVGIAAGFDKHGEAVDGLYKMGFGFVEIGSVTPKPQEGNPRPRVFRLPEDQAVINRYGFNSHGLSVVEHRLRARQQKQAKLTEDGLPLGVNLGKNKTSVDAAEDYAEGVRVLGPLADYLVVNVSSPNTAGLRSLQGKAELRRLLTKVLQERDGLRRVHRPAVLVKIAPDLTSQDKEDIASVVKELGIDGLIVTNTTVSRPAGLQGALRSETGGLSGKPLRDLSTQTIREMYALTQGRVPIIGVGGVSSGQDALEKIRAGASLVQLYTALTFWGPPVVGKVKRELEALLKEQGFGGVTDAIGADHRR
Description: Inhibition of DHODH (unknown origin) expressed in Escherichia coli Rosetta2(DE3) assessed as reduction of DCIP using dihydroorotate as substrate preincubated for 30 mins followed by substrate addition in presence of CoQ10 measured after 1 hr
Series [8] in a line: Initial plasma concentration in CD-1 mouse at 10 mg/kg, iv. The series is classed as ADME, organism-based.
A short description of series [9]: Cmax in CD-1 mouse at 20 mg/kg, po. Format: ADME, organism-based. Set-up: dose 20 mg/kg, route oral. The conditions noted are these: in vivo.
A short description of series [10]: Tmax in CD-1 mouse at 20 mg/kg, po. Format: ADME, organism-based. The conditions noted are these: in vivo.
Series [11] can be described thus: AUC (0 to last) in CD-1 mouse at 10 mg/kg, iv. The series is classed as ADME, organism-based. Set-up: dose 10 mg/kg, time 0 - last, route intravenous. The settings on record: in vivo.
The nature of series [12]: AUC (0 to last) in CD-1 mouse at 20 mg/kg, po. The series is classed as ADME, organism-based. Set-up: dose 20 mg/kg, route oral, time 0 - last. The settings on record: in vivo.
Series [13] can be described thus: AUC (0 to infinity) in CD-1 mouse at 10 mg/kg, iv. Format: ADME, organism-based. The arrangement: dose 10 mg/kg, time infinity, route intravenous. The settings on record: in vivo.
The nature of series [14]: AUC (0 to infinity) in CD-1 mouse at 20 mg/kg, po. Format: ADME, organism-based. Set-up: dose 20 mg/kg, time infinity, route oral. The settings on record: in vivo.
The nature of series [15]: Elimination half life in CD-1 mouse at 10 mg/kg, iv. Format: ADME, organism-based. The settings on record: in vivo, read-out: beta t1/2 (converted).
A short description of series [16]: Elimination half life in CD-1 mouse at 20 mg/kg, po. Format: ADME, organism-based. The conditions noted are these: in vivo, read-out: beta t1/2 (converted).
Series [17] is described as follows: Clearance in CD-1 mouse at 10 mg/kg, iv. Format: ADME, organism-based. The settings on record: in vivo.
A short description of series [18]: Apparent clearance in CD-1 mouse at 20 mg/kg, po. Format: ADME, organism-based. The settings on record: in vivo.
Series [19] is described as follows: Volume of distribution at steady state in CD-1 mouse at 10 mg/kg, iv. The settings on record: in vivo, read-out: Vdss. The series is classed as ADME, organism-based.
Series [20] is described as follows: Apparent volume of distribution during terminal phase in CD-1 mouse at 20 mg/kg, po. The series is classed as ADME, organism-based. The settings on record: in vivo, read-out: Vz/F.
Another series deals with Mus musculus. The series is described as follows: Oral bioavailability in CD-1 mouse at 20 mg/kg. The series is classed as ADME, organism-based. The conditions noted are these: in vivo.
Series [21] can be described thus: Thermodynamic aqueous solubility of the compound in pH 7.4 phosphate buffer at 5.8 mg/ml after overnight incubation by CLND method. Format: physicochemical.
Series [22] is described as follows: Solubility of the compound in water at pH 7.4. The series is classed as physicochemical.
Series [23] is described as follows: Cmax in human at 8 mg/m2 administered as 10 mins iv infusion. Format: ADME, organism-based. The arrangement: route intravenous. The conditions noted are these: in vivo.
Series [24] in a line: Cmax in human at 16 mg/m2 administered as 10 mins iv infusion. The series is classed as ADME, organism-based. The arrangement: route intravenous. The conditions noted are these: in vivo.
A short description of series [25]: AUC (0 to last) in human at 8 mg/m2 administered as 10 mins iv infusion. Format: ADME, organism-based. The arrangement: time 0 - last, route intravenous. The conditions noted are these: in vivo.
Series [26] in a line: AUC (0 to last) in human at 16 mg/m2 administered as 10 mins iv infusion. The series is classed as ADME, organism-based. Set-up: route intravenous, time 0 - last. The conditions noted are these: in vivo.
Series [27] can be described thus: AUC (0 to last) in human at 36 mg/m2, iv. The series is classed as ADME, organism-based. Set-up: route intravenous, time 0 - last. The settings on record: in vivo.
Series [28] can be described thus: Elimination half life in human at 8 mg/m2 administered as 10 mins iv infusion. Format: ADME, organism-based. The conditions noted are these: in vivo, read-out: beta t1/2 (converted).
A short description of series [29]: Elimination half life in human at 16 mg/m2 administered as 10 mins iv infusion. Format: ADME, organism-based. The settings on record: in vivo, read-out: beta t1/2 (converted).
Series [30] is described as follows: Elimination half life in human at 36 mg/m2, iv. The series is classed as ADME, organism-based. The settings on record: in vivo, read-out: beta t1/2 (converted).
The test system of series [31] is Homo sapiens. The series is described as follows: Clearance in human at 8 mg/m2 administered as 10 mins iv infusion. Format: ADME, organism-based. The settings on record: in vivo.
Series [32] has as its system Homo sapiens. Put plainly: Clearance in human at 16 mg/m2 administered as 10 mins iv infusion. Format: ADME, organism-based. The conditions noted are these: in vivo.
Series [33] relates to Homo sapiens. Put plainly: Volume of distribution at steady state in human at 8 mg/m2 administered as 10 mins iv infusion. The series is classed as ADME, organism-based. The conditions noted are these: in vivo.
Series [34] deals with Homo sapiens. Put plainly: Volume of distribution at steady state in human at 16 mg/m2 administered as 10 mins iv infusion. The series is classed as ADME, organism-based. The conditions noted are these: in vivo.
Series [35] concerns Homo sapiens. Put plainly: Volume of distribution at steady state in human at 36 mg/m2, iv. The series is classed as ADME, organism-based. The conditions noted are these: in vivo.
Series [36] is described as follows: Thermodynamic aqueous solubility of the compound in pH 7.4 phosphate buffer at 6.2 mg/ml after overnight incubation by CLND method. Format: physicochemical.
Series [37] in a line: Thermodynamic aqueous solubility of the compound in pH 7.4 phosphate buffer at 6.4 mg/ml after overnight incubation by CLND method. The series is classed as physicochemical.

What is called IC50 is the concentration that inhibits the measured activity by half. In the case of `O=C(O)c1cc(-c2ccc(C3CCCCC3)cc2)nc2ccccc12`, the IC50 in the series on MIA PaCa-2 stood at 5.88 µM; with HCT-116 [1], 4.22 µM. Also, in the series on HCT-116 [2], the “growth inhibition (GI)” value was under 50%. Besides, the Therm_solubility came to 43.9 µM in series [3] and 48 µM in series [4].
With `Cc1c(-c2ccc(-c3ccccc3)cc2)nc2cnccc2c1C(=O)O`, the IC50 with MIA PaCa-2 worked out at 4.5 µM; in the series with HCT-116 [1], 6.3 µM; in the series with HL-60, 7.08 µM; in series [7] it was 28.3 nM. Also, the Therm_solubility is 2628.4 µM in series [5] and 3.0963 mM in series [6].
Usually Cmax stands for the peak of the concentration-time curve. One may read the Tmax as the time at which the peak concentration occurs. As usually defined, the AUC(0-t) is exposure summed from dosing to a finite time, without extrapolation to infinity. A high value points to more exposure. In general, AUC(0-inf) refers to the area under the concentration-time curve extrapolated to infinity. Usually clearance stands for the volume of plasma or blood freed of the substance per unit of time. Read a high clearance as a high capacity for elimination. The CL/F is the apparent clearance, not corrected for the fraction that reaches the circulation. Regarding `Cc1c(-c2ccc(-c3cccnc3Cl)cc2)nc2ccc(F)cc2c1C(=O)O`, the IC50 is 7.18 µM with MIA PaCa-2, 3.02 µM in the series with HCT-116 [1] and 9.28 µM in the series on HL-60. Besides, the C0 in [8] came out at 45400 ng/mL. This molecule yielded a Cmax in series [9] of 5310 ng/mL. In series [10], the Tmax stood at 15 min. Further, the AUC(0-t) was 32300 ng·h/mL in series [11] and 35900 ng·h/mL in [12]. Also, the AUC(0-inf) in series [13] was found to be 32300 ng·h/mL; in series [14], 36000 ng·h/mL. Also, the half-life in series [15] is 164 min; in series [16] it was 167 min. In series [17], the clearance was 5.15 mL/min/kg. Further, the CL/F in series [18] was 9.25 mL/min/kg. In addition, the Vd in [19] came to 0.496 L/kg. In [20], the Vd/F is 2.23 L/kg. For the same molecule, the F in the series with Mus musculus stood at 56%. Also, the Therm_solubility in series [4] was 982.1 µM; in series [21] it was 1000.1 µM.
By solubility is commonly meant the dissolved amount per volume that the medium holds. Read a high solubility as a readily soluble substance. Molecule `Cc1c(-c2ccc(-c3ccccc3F)cc2)nc2ccc(F)cc2c1C(=O)O` [BREQUINAR] gave a solubility in [22] of under 100 µg/mL. Also, the IC50 in the series with MIA PaCa-2 worked out at 1.69 µM; with HCT-116 [1] it was 0.679 µM; in the series on HL-60, 0.544 µM. Besides, in the series on HCT-116 [2], the “growth inhibition (GI)” value is under 50%. The Cmax in series [23] stood at 1800 ng/mL; in series [24], 2700 ng/mL. In addition, the AUC(0-t) at 10 min in [25] was 3200 ng·h/mL; in series [26] it was 3800 ng·h/mL. The same molecule yielded an AUC(0-t) in [27] of 20700 ng·h/mL. Also, the half-life in series [28] was 174 min; in series [29], 186 min; in series [30], 258 min. Moreover, the figures for the CL in the series with Homo sapiens [31] and in the series on Homo sapiens [32] were 3.2 L/hr/m2 and 4.9 L/hr/m2, respectively. In addition, the values for the Vdss in the series on Homo sapiens [33], in the series with Homo sapiens [34] and in the series with Homo sapiens [35] were 8.2 L/m2, 11.6 L/m2 and 7.48 L/m2, respectively. Moreover, the Therm_solubility stood at 1085.2 µM in [36] and 1048.6 µM in series [37].
